Experimental data: patent publication US11219213B2, “Fungicidal composition” (ADAMA HUIFENG (JIANGSU) LTD., priority 2016, dated 2022)
Read-outs that look alike come from different tables or passages of the source.

System: wheat leaf rust
Assay: Toxicity test of benzisothiazolinone combined with flutriafol (bioassay)
Assay type: in vivo
Details: for ATI (actual toxicity index): (EC50 of standard/EC50 of test agent)*100, flutriafol as standard; for EC50: median inhibition concentration from control effect, least square method

## O=c1[nH]sc2ccccc12 [Benzisothiazolinone, benzisothiazolinone]
  ATI (actual toxicity index): 167.39
  EC50: 40.23 µg/mL

## OC(Cn1cncn1)(c1ccc(F)cc1)c1ccccc1F (stereo not shown) [Flutriafol, flutriafol]
  ATI (actual toxicity index): 100.00
Puccinia triticina, read-out: EC50
  EC50: 67.3 µg/mL
